PubChem BioAssay AID1963421 (Molecular Pharmacology Branch, DTP, NCI, 2024)

System: 519858-162-T-J1-PDC complex spheroid growth, % test/control
Assay: Anticancer human tumor 519858-162-T-J1-PDC patient-derived colon adenocarcinoma cell line growth inhibition [Asc]
Conditions: for IC50: curve of first compound; for viability, T/C: stronger effect = lower value
Method in brief: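 Complex solid-tumor spheroids incorporating human endothelial and mesenchymal stem cells received single agents or combinations over half-log dilution ranges anchored to clinical Cmax.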
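Further: seven day drug exposure begun three days after spheroid seeding.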
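Wherever viability, T/C is given: 100% = DMSO vehicle wells and lower values mean less viable spheroid.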

NC(=O)C(=Cn1cnc(-c2cc(C(F)(F)F)cc(C(F)(F)F)c2)n1)c1cncnc1 + Cc1c(S(C)(=O)=O)c(-c2cc(F)cc(N3CCN(c4ccc(NS(=O)(=O)c5ccc(NC(CCN6CCC(C(=O)OCCCP(=O)(O)O)CC6)CSc6ccccc6)c(S(=O)(=O)C(F)(F)F)c5)cc4)CC3)c2)c(-c2ccc(Cl)cc2)n1C(C)C
IC50 (second compound 0.0316 µM): > 300 nM
IC50 (second compound 0.1 µM): > 300 nM
IC50 (second compound 0.316 µM): > 300 nM
IC50 (second compound 1 µM): > 300 nM
IC50 (second compound 3.16 µM): > 300 nM
IC50 (second compound 10 µM): > 300 nM
viability, T/C (second compound 0.0316 µM, first compound 0.000949 µM): 113%
viability, T/C (second compound 0.0316 µM, first compound 0.003 µM): 101%
viability, T/C (second compound 0.0316 µM, first compound 0.00949 µM): 87.4%
viability, T/C (second compound 0.0316 µM, first compound 0.03 µM): 66%
viability, T/C (second compound 0.0316 µM, first compound 0.0949 µM): 97.8%
viability, T/C (second compound 0.0316 µM, first compound 0.3 µM): 88.3%
viability, T/C (second compound 0.1 µM, first compound 0.000949 µM): 94.2%
viability, T/C (second compound 0.1 µM, first compound 0.003 µM): 89.1%
viability, T/C (second compound 0.1 µM, first compound 0.00949 µM): 93.7%
viability, T/C (second compound 0.1 µM, first compound 0.03 µM): 78.3%
viability, T/C (second compound 0.1 µM, first compound 0.0949 µM): 59.4%
viability, T/C (second compound 0.1 µM, first compound 0.3 µM): 98.2%
viability, T/C (second compound 0.316 µM, first compound 0.000949 µM): 97.4%
viability, T/C (second compound 0.316 µM, first compound 0.003 µM): 86%
viability, T/C (second compound 0.316 µM, first compound 0.00949 µM): 90.9%
viability, T/C (second compound 0.316 µM, first compound 0.03 µM): 60.7%
viability, T/C (second compound 0.316 µM, first compound 0.0949 µM): 82.7%
viability, T/C (second compound 0.316 µM, first compound 0.3 µM): 74.9%
viability, T/C (second compound 1 µM, first compound 0.000949 µM): 86.6%
viability, T/C (second compound 1 µM, first compound 0.003 µM): 122%
viability, T/C (second compound 1 µM, first compound 0.00949 µM): 65%
viability, T/C (second compound 1 µM, first compound 0.03 µM): 83.5%
viability, T/C (second compound 1 µM, first compound 0.0949 µM): 71.6%
viability, T/C (second compound 1 µM, first compound 0.3 µM): 71.5%
viability, T/C (second compound 3.16 µM, first compound 0.000949 µM): 79.8%
viability, T/C (second compound 3.16 µM, first compound 0.003 µM): 79.2%
viability, T/C (second compound 3.16 µM, first compound 0.00949 µM): 78.8%
viability, T/C (second compound 3.16 µM, first compound 0.03 µM): 50.3%
viability, T/C (second compound 3.16 µM, first compound 0.0949 µM): 54.6%
viability, T/C (second compound 3.16 µM, first compound 0.3 µM): 79.8%
viability, T/C (second compound 10 µM, first compound 0.000949 µM): 58.9%
viability, T/C (second compound 10 µM, first compound 0.003 µM): 59.7%
viability, T/C (second compound 10 µM, first compound 0.00949 µM): 71.2%
viability, T/C (second compound 10 µM, first compound 0.03 µM): 76.3%
viability, T/C (second compound 10 µM, first compound 0.0949 µM): 72.4%
viability, T/C (second compound 10 µM, first compound 0.3 µM): 60.1%

NC(=O)C(=Cn1cnc(-c2cc(C(F)(F)F)cc(C(F)(F)F)c2)n1)c1cncnc1 + CCN1C(C(=O)NC23CCC(C(=O)O)(CC2)CC3)C(c2cccc(Cl)c2F)C2(C(=O)Nc3cc(Cl)ccc32)C12CCCCC2
IC50 (second compound 0.00949 µM): > 300 nM
IC50 (second compound 0.03 µM): > 300 nM
IC50 (second compound 0.0949 µM): > 300 nM
IC50 (second compound 0.3 µM): > 300 nM
IC50 (second compound 0.949 µM): > 300 nM
IC50 (second compound 3 µM): > 300 nM
viability, T/C (second compound 0.00949 µM, first compound 0.000949 µM): 102%
viability, T/C (second compound 0.00949 µM, first compound 0.003 µM): 94.8%
viability, T/C (second compound 0.00949 µM, first compound 0.00949 µM): 56.9%
viability, T/C (second compound 0.00949 µM, first compound 0.03 µM): 69.6%
viability, T/C (second compound 0.00949 µM, first compound 0.0949 µM): 65.8%
viability, T/C (second compound 0.00949 µM, first compound 0.3 µM): 81.9%
viability, T/C (second compound 0.03 µM, first compound 0.000949 µM): 87.2%
viability, T/C (second compound 0.03 µM, first compound 0.003 µM): 81%
viability, T/C (second compound 0.03 µM, first compound 0.00949 µM): 94.5%
viability, T/C (second compound 0.03 µM, first compound 0.03 µM): 81.4%
viability, T/C (second compound 0.03 µM, first compound 0.0949 µM): 63.5%
viability, T/C (second compound 0.03 µM, first compound 0.3 µM): 53.8%
viability, T/C (second compound 0.0949 µM, first compound 0.000949 µM): 87.5%
viability, T/C (second compound 0.0949 µM, first compound 0.003 µM): 94.5%
viability, T/C (second compound 0.0949 µM, first compound 0.00949 µM): 94.3%
viability, T/C (second compound 0.0949 µM, first compound 0.03 µM): 63.8%
viability, T/C (second compound 0.0949 µM, first compound 0.0949 µM): 63.4%
viability, T/C (second compound 0.0949 µM, first compound 0.3 µM): 63%
viability, T/C (second compound 0.3 µM, first compound 0.000949 µM): 75.5%
viability, T/C (second compound 0.3 µM, first compound 0.003 µM): 73.2%
viability, T/C (second compound 0.3 µM, first compound 0.00949 µM): 70.8%
viability, T/C (second compound 0.3 µM, first compound 0.03 µM): 88.2%
viability, T/C (second compound 0.3 µM, first compound 0.0949 µM): 45.1%
viability, T/C (second compound 0.3 µM, first compound 0.3 µM): 85.9%
viability, T/C (second compound 0.949 µM, first compound 0.000949 µM): 69.5%
viability, T/C (second compound 0.949 µM, first compound 0.003 µM): 71.9%
viability, T/C (second compound 0.949 µM, first compound 0.00949 µM): 58.3%
viability, T/C (second compound 0.949 µM, first compound 0.03 µM): 78.7%
viability, T/C (second compound 0.949 µM, first compound 0.0949 µM): 85.4%
viability, T/C (second compound 0.949 µM, first compound 0.3 µM): 79.2%
viability, T/C (second compound 3 µM, first compound 0.000949 µM): 69%
viability, T/C (second compound 3 µM, first compound 0.003 µM): 81.2%
viability, T/C (second compound 3 µM, first compound 0.00949 µM): 59%
viability, T/C (second compound 3 µM, first compound 0.03 µM): 65.5%
viability, T/C (second compound 3 µM, first compound 0.0949 µM): 91.2%
viability, T/C (second compound 3 µM, first compound 0.3 µM): 82.1%
